Measured values: US20040063681A1, “Methods for using gold (III) complexes as anti-tumor and anti-HIV agents” (priority 2002, published 2004)

Tests used:
HeLa cells = experiment: Flow cytometry annexin V/propidium iodide apoptosis assay; format: cell-based, human
Excerpt: Flow cytometry: The gold(III) porphyrin-induced apoptosis of the HeLa cell line has been further examined by flow cytometry. During the early phase of apoptosis, cells lose the asymmetry of their membrane phospholipids, although the integrity of the cell membrane is maintained. A negatively charged phospholipid, named phosphatidylserine (PS), which is located in the inner part of the plasma membrane, becomes exposed to the cell surface. A phospholipid-binding protein, annexin V (green emissive upon binding), with high affinity binds preferentially to PS. Apoptotic cells therefore can be stained by annexin V before the dying cell changes its morphology and hydrolyzes its DNA. On the other hand, both DNA and the PS would be exposed for necrotic cells. In this case, propidium iodide (PI, red emissive upon binding), can be used to stain selectively the naked DNA. Therefore, both apoptotic and necrotic cells can be discriminated after adding these two staining reagents. For apoptotic cells, only annexin V would stain; for necrotic cells, both annexin V and PI would stain.
For comparison, a control cell culture experiment was performed in the absence of Complex 1a and straurosporine. […] Throughout the flow cytometric experiment, <1% of necrotic cells were observed.

[1] = test system: human cancer cell lines (HL-60, HepG2, HeLa, KB-3-1, KB-V1, SUNE1, CNE1); format: cell-based; settings: MTT, all studied cell lines; read-out: IC50 values over the panel of cancer cell lines
Excerpt: Human promyelocytic leukemia (HL-60), human hepatocellular carcinoma (HepG2), Human cervix epitheloid carcinoma cells (HeLa) and human oral epidermoid carcinoma cells (KB-3-1), were obtained from American Type Culture Collection (ATCC) (Rockville, Md.). The multi-drug-resistant variant KB-V1 cell line was obtained by stepwise selections for vinblastine resistance as described by Shen et al., J. Biol. Chem. 261:7762-7770 (1986)], and was generously provided by Dr Michael Gottesman (NIH, Bethesda, Md.). Human nasopharyngeal carcinoma cells (SUNE1 and its cisplatin resistance variant, CNE1) were derived from poorly differentiated NPC in Chinese patients as described by Gu et al., Chin. J. Cancer 2:270-272 (1983), and were generously provided by Dr S. W. Tsao (The University of Hong Kong, Hong Kong, PRC). Cell culture flasks and 96 well microtitre plates were from Nalge Nunc hit. Culture medium, other medium constituents and phosphate buffered saline (PBS) were obtained from Gibco BRL (Rockville, Md.). […]
The anti-cancer activities of the gold(III) porphyrin complexes were evaluated toward some established human cancer cell lines: promyelocytic leukemia (HL-60), hepatocellular carcinoma (HepG2), cervix epitheloid carcinoma (HeLa), epidermoid carcinoma (KB-3-1) and its multi-drug resistant variant (KB-V1), nasopharyngeal carcinoma (SUNE1) and its cisplatin-resistant variant (CNE1). […]

[2] = Control UV-vis titration with sodium dodecyl sulfate instead of DNA; format: binding; settings: sodium dodecyl sulfate (0-5 μM) instead of DNA
Excerpt: See Neidle, S. DNA structure and recognition; Oxford University Press: Oxford, 1994; 74-79.

[3] = test system: Human Hepatocellular Carcinoma (HepG2); experiment: MTT cytotoxicity, HepG2; format: cell-based; settings: growth inhibition
[4] = test system: Human Oral Epidermoid Carcinoma (KB-3-1); experiment: MTT cytotoxicity, KB-3-1; format: cell-based; settings: MTT, growth inhibition
Excerpt: Human promyelocytic leukemia (HL-60), human hepatocellular carcinoma (HepG2), Human cervix epitheloid carcinoma cells (HeLa) and human oral epidermoid carcinoma cells (KB-3-1), were obtained from American Type Culture Collection (ATCC) (Rockville, Md.). […] Cell culture flasks and 96 well microtitre plates were from Nalge Nunc hit. Culture medium, other medium constituents and phosphate buffered saline (PBS) were obtained from Gibco BRL (Rockville, Md.). Cell Proliferation Kit I (MTT) was purchased from Roche (Mannheim, Germany).

[5] = 1H-NMR stability experiments with GSH; format: physicochemical; settings: 72 h
Method: ^1H-NMR experiments. […] The pH was adjusted to 7.4 with NaOD, and the solution was degassed for 10 min by bubbling with nitrogen to minimize oxidation of GSH. Similar experimental setup was done for Complex 1j, except this analysis was carried out in D2O only. The electronic spectra of the resulting mixtures was then monitored for 72 h.
It is known that the chemical shifts of the pyrrolic protons are sensitive to the oxidation states of the gold center, and reduction of Au(III) to Au(I) or Au(0) is expected to be accompanied by spectral changes in the pyrrolic region.
Glutathione can be oxidized to form a disulfide bridged dimer (GSSG) with a mild oxidizing agent such as gold(III) complex. A previous study by Sun et al., Eur. J. Biochem. 267:5450-5457 (2000) established that GSSG is characterized by a doublet absorption peak at δH 3.30 ppm, assignable to β-CH2 group as depicted in Scheme 5. Scheme 5. Characteristic proton resonance absorptions for (a) GSH and (b) GSSG in D2O [drawing 29]
The results of the NMR studies indicate that illustrative Complexes 1a-1k are stable under physiologically relevant conditions.

[6] = Electrochemical measurements (cyclic voltammetry); format: physicochemical
Method: Electrochemical measurements. Electrochemical measurements were performed at room temperature after purging with nitrogen using 0.1 M tetrabutylammonium hexafluorophosphate (TBAP)/acetonitrile as supporting electrolyte. The working electrode was a glassy carbon (Atomergic Chemetal V25, geometric area of 0.35 cm^2) electrode and the counter electrode was platinum gauze. A nonaqueous Ag/AgNO3 (0.1 M in acetonitrile) reference electrode was contained in a separate compartment connected to the test solution via fine sintered glass disks. The ferrocenium/ferrocene couple was used as the internal standard. The redox properties of the gold(III) porphyrin complexes in non-aqueous medium (CH2Cl2 with 0.1 M nBu4NPF6) have been studied by cyclic voltammetry with glassy carbon and platinum as the working and counter electrodes, respectively. […] The effect of para-substitution on the electrochemical potentials has been examined by Hammett correlation analysis.

[7] = cyclic voltammetry, 0.1 M nBu4NPF6, glassy carbon, vs Cp2Fe^+/0

In the case of `C1=Cc2nc1c(-c1ccccc1)c1ccc([n-]1)c(-c1ccccc1)c1nc(c(-c3ccccc3)c3ccc([n-]3)c2-c2ccccc2)C=C1.[Au+3].[Cl-]` [Complex 1a], the “cells that underwent apoptosis” value (HeLa cells; 6 h of incubation) is reported as 24%, the “cells died via apoptosis” value (HeLa cells; 15 h of incubation) is reported as 57% and the “annexin V emission” value (HeLa cells; after treatment (Complex 1a 6 and 15 h; straurosporine 15 h)) is reported as “the magnitude of the annexin V emission was enhanced”. For the same compound, the necrotic cells (HeLa cells; throughout the flow cytometric experiment) was < 1%, the IC50 [1] was 100 to 800 nM and the “hypochromicity of the Soret band” value [2] was 48%. For the same compound, the IC50 [3] was 340 nM, the IC50 [4] was 200 nM and the “1H NMR spectral changes” value ([5]; GSH (2 mM), D2O/CD3CN (9:1 v/v), room temperature) was “no significant spectral changes were observed”. For the same compound, the “changes of 1H NMR spectral pattern in the aromatic region (δH 7.2-8.4 ppm)” value ([5]; with GSH) was “did not observe any significant changes of the spectral pattern”, the “Couple I (first reduction couple)” value [6, 7] was −1.00 V and the “Couple II (second reduction couple)” value [6, 7] was −1.48 V. For the same compound, the “ΔE1o (E^0Y − E^0H), couple I” value ([6]; relative to Y=H (Complex 1a)) was 0 V and the “ΔE2^0 (E^0Y − E^0H), couple II” value ([6]; relative to Y=H (Complex 1a)) was 0 V.
